Experimental data as given in US4448785A, “N-Unsaturated fatty acid amides of tryptophan ester homologues and anti-cholesteric use thereof” (Sandoz, Inc., priority 1982, dated 1984).
“And” between values parts separate entries of the source, which are not always exact repeats. Identical values can stand only once.

Tests used:
Fu5AH rat hepatoma cells = experiment: Inhibition of cholesterol ester accumulation in Fu5AH cells; assay type: cell-based; parameters: Visual (in comparison to results with compound of Example 2a) / % Inhibition of cholesterol ester accumulation: unit of the concentration uncertain; settings: for inhibition at 10 µg/mL: Rattus norvegicus
From the text: For testing a 75 cm^2 flask with a near confluent cell growth is selected. The cells are removed from the flask surface by mild enzymatic treatment with pronase. After centrifugation and decanting the enzyme solution, the cell pellet is resuspended in an appropriate volume of media for seeding the desired number of 60 mm tissue culture dishes. Five (5) ml of the diluted cell suspension are pipetted into each dish. After seeding, the dishes are labelled with the cell type, date and flask number of origin and incubated at 37° C. in approximately 5% CO2 atmosphere in a high humidity incubator. When the cultures are confluent, the actual drug testing is begun. Test compounds are routinely solubilized in 100% ethanol. An equivalent amount of ethanol is added to control groups as well. The tissue culture dishes are randomly divided into groups. To one group, hyperlipemic rabbit serum (HRS) is added at 5% by volume (control). […] The dishes are returned to the incubator for an additional 24 hours. All operations through to the final incubation are performed using sterile technique in a laminar flow hood. After the incubation period, the dishes are microscopically observed with the Zeiss Axiomat with phase contrast optics and the conditions of the cultures are recorded; especially in regard to the size, number and configuration of cytoplasmic inclusions and to cellular morphology. The media is removed from the cultures and 0.9% sodium chloride solution is added. The cells are removed from the flasks with the aid of a rubber policeman and transferred to a conical graduated centrifuge tube. The cells are washed three times by suspending in an isotonic salt solution, centrifuging at 800× g for 10 minutes and aspirating the supernatant fluid.
(§1) An appropriate volume of isopropyl alcohol (about 1 ml/mg protein) is then added to the cell pellet and the sample sonicated with a micro probe (140×3 mm) for 10 seconds with a "LO" setting of 50 on a Bronwell Biosonik IV. After centrifugation for 15 minutes at 800× g, the clear supernatant is decanted and an aliquot taken for cholesterol analysis.
An aliquot of 0.4 ml of free reagent (Reagent A, Table 1 below) is added to a 10×75 mm disposable glass test tube to which 20 μl of the isopropyl alcoholic solution is added and mixed. After standing at room temperature for approximately 5 minutes, 0.8 ml of 0.5 N sodium hydroxide (Reagent C, Table 1) is added and mixed. The fluorescence is measured with an Aminco-Bowman spectrophotofluorometer with an excitation wavelength of 325 nm and emission wavelength of 415 nm. A 1 cm light path cuvette is used with a xenon lamp, an IP28 photomultiplier tube and 2 mm slits.
Total cholesterol: The same procedure described above for free cholesterol is followed for total cholesterol except that the total reagent (Reagent B, Table 1) is used instead of the free reagent and the samples are incubated for 20 minutes at 37° C. before the addition of the 0.5 N sodium hydroxide solution (Reagent C, Table 1).
The amount of cholesterol ester is found by subtracting the amount of free cholesterol from the total cholesterol content of the cells determined by the assay.

[1] = tested on: serum cholesterol and cholesterol ester levels; experiment: Oral administration to rabbits with high cholesterol diet, serum cholesterol and arterial plaques; assay type: in vivo; settings: oral 200 mg/kg per day for 9 weeks, compared to controls
cholesterol absorption = experiment: Zilversmit test, cholesterol absorption in the cholesterol fed rabbit; assay type: in vivo, Male New Zealand rabbits; settings: three days, n = 4
Protocol: The Zilversmit test is carried out as follows:
Cholesterol-1-2-^3 H and cholesterol-4-^14 C were obtained from New England Nuclear. They were purified by high pressure liquid chromatography (Beckman Model 332) using a reverse phase ultrasphere O.D.S. 25 cm×4.5 mm I.D. column with the following solvent system:
The flow rate was 1 ml/min. Detection was made at 206 nm using a Model 155-40 UV-Vis detector (Beckman). The radioactive cholesterol solution in benzene was evaporated to dryness, taken up in isopropyl alcohol and injected into the HPLC in five 20 μl aliguots. Cholesterol fractions were collected, pooled and evaporated to dryness. The purified fraction was rechromatographed under the same conditions to confirm purity.
The HPLC-purified cholesterol-1-2-^3 H was dissolved in corn oil (M.C.B.U.S.P.). The corn oil solution was added to 6.8% skim milk in a ratio of 1:4. This mixture was homogenized by sonicating with a Bronwell Biosonik IV sonicator using a microprobe at a "Lo" setting of 50 until a homogenous suspension was formed. […]
The radioactivity was determined by liquid scintillation counting in either a Packard 3320 Liquid Scintillation Spectrometer or a Beckman Model LS8000. […]
The combined efficiency of the oxidizer and liquid scintillation counter was determined for each isotope from standards of known specific activity. […]

[2] = tested on: monkey aortic smooth muscle cells; experiment: Cell culture cholesterol ester test, monkey aortic smooth muscle cells (Table 2); assay type: cell-based, Rhesus monkey; settings: 5% HRS
From the text: The compounds of formula I of this invention are useful as pharmaceutical agents in animals. In particular, the compounds of the formula I are useful in controlling the cholesterol ester content of mammalian arterial walls and are therefore particularly indicated for use as anti-atherosclerotic agents, ie. agents useful in the prophylactic treatment of atherosclerosis and in the controlling of atherosclerotic conditions due to cholesterol ester accumulation in the arterial walls. Such ability of the compounds of the formula I is indicated e.g., by known test procedures in which the total cholesterol ester content of cultured cells is shown to be reduced by a test compound, as compared to untreated cells, and carried out, for example, by the following procedures:
Rhesus monkey smooth muscle cells (from the arterial, eg aorta wall) obtained by the method of K. Fisher-Dzoga et al (Experimental and Molecular Pathology 18, 162-176 (1973)) are routinely grown in 75 cm^2 tissue culture flasks using Minimum Essential Medium (Eagle) supplemented with 10% fetal bovine serum. For testing a 75 cm^2 flask with a near confluent cell growth is selected. The cells are removed from the flask surface by mild enzymatic treatment with pronase. After centrifugation and decanting the enzyme solution, the cell pellet is resuspended in an appropriate volume of media for seeding the desired number of 60 mm tissue culture dishes. Five (5) ml of the diluted cell suspension are pipetted into each dish. After seeding, the dishes are labelled with the cell type, date and flask number of origin and incubated at 37° C. in approximately 5% CO2 atmosphere in a high humidity incubator. When the cultures are confluent, the actual drug testing is begun. Test compounds are routinely solubilized in 100% ethanol. An equivalent amount of ethanol is added to control groups as well. The tissue culture dishes are randomly divided into groups. To one group, hyperlipemic rabbit serum (HRS) is added at 5% by volume (control). To the remaining groups, 5% HRS and 1 mg per 100 ml of media of the test compound are added. The dishes are returned to the incubator for an additional 24 hours. All operations through to the final incubation are performed using sterile technique in a laminar flow hood. After the incubation period, the dishes are microscopically observed with the Zeiss Axiomat with phase contrast optics and the conditions of the cultures are recorded; especially in regard to the size, number and configuration of cytoplasmic inclusions and to cellular morphology. The media is removed from the cultures and 0.9% sodium chloride solution is added. The cells are removed from the flasks with the aid of a rubber policeman and transferred to a conical graduated centrifuge tube. The cells are washed three times by suspending in an isotonic salt solution, centrifuging at 800× g for 10 minutes and aspirating the supernatant fluid.
as §1
The residue is dissolved in 0.1 N sodium hydroxide and an aliquot taken for protein determination by the method of Lowry, et al. (J. Biol. Chem. 193, 265; 1951). […]

[3] = 1 mg test compound per 100 ml of media, 24 hours, listed as A
[4] = Dose 10 (unit uncertain) as printed
[5] = Dose 10 as printed, Control = 0.17

Compound: CCCCCCCC/C=C\CCCCCCCC(=O)NC(Cc1c[nH]c2ccccc12)C(=O)OCC (single isomer, unassigned) [Example 2a, α-[(1-oxo-9-octadecenylamino)]-1H-indole-3-propanoic acid, ethyl ester (cis isomer)]
- Cholesterol Free (Fu5AH rat hepatoma cells; 10 μg/ml, 5% HRS, Mean ± SEM, p < .01 vs Hyperlipemic Control 40.7 ± 0.6): 76.8 ± 6.5 μg/mg Cell Protein
- Cholesterol Ester (Fu5AH rat hepatoma cells; 10 μg/ml, 5% HRS, Mean ± SEM, p < .01 vs Hyperlipemic Control 152.5 ± 2.3): 40.6 ± 1.3 μg/mg Cell Protein
- Cholesterol Total (Fu5AH rat hepatoma cells; 10 μg/ml, 5% HRS, Mean ± SEM, p < .01 vs Hyperlipemic Control 193.0 ± 2.9): 117.4 ± 5.2 μg/mg Cell Protein
- % inh (cholesterol ester accumulation) (Fu5AH rat hepatoma cells; 10 μg/ml, Table 5): 73%
- inhibition of cholesterol accumulation by cells (Fu5AH rat hepatoma cells; Fu5AH cells): marked inhibition of cholesterol accumulation
- F/T (Fu5AH rat hepatoma cells; calculated from Table 5 (10 μg/ml), hyperlipemic control = 0.21): 0.65
- arterial wall plaques [1]: lessened formation or absence of arterial wall plaques
- cholesterol and cholesterol ester serum levels [1]: reduction in cholesterol and cholesterol ester serum levels
- Percent Cholesterol Absorption (cholesterol absorption; 200 mg/kg by gavage, ± S.E.M., control 43.0 ± 2.03): 20.0 ± 1.43%
- Percent Cholesterol Absorption (cholesterol absorption; 500 mg/kg by gavage, Mean ± S.E.M., control 41.0 ± 3.3): 11.2 ± 1.1%
- Cholesterol Free [2, 3]: 50.4 μg/mg cell protein and 54.4 μg/mg cell protein
- Cholesterol Total [2, 3]: 57.4 μg/mg cell protein and 60.3 μg/mg cell protein
- Cholesterol Ester Amount ([2]; 1 mg test compound per 100 ml of media, 24 hours, single culture, controls 23.1 and 21.4, listed as A): 7.0 μg/mg cell protein and 5.9 μg/mg cell protein
- Cholesterol Ester Percent from control ([2]; decrease, significant at P less than 0.01, 1 mg per 100 ml of media): 71.0%
- Cholesterol Ester mean ([2]; mean of two cultures, 1 mg per 100 ml of media, control mean 22.3): 6.5 μg/mg cell protein

Compound: CCCCC/C=C\C/C=C\CCCCCCCC(=O)NC(Cc1c[nH]c2ccccc12)C(=O)OCC (stereo not drawn) [Example 1, α-[(1-Oxo-9,12-oxtadecadienylamino)]1H-Indole-3-Propanoic acid, Ethyl Ester(cis, cis isomer)]
- Visual (in comparison to results with compound of Example 2a) (Fu5AH rat hepatoma cells; [4]): About same
- % Inhibition of cholesterol ester accumulation (Fu5AH rat hepatoma cells; Dose 10 (unit uncertain) as printed, Table 6): 59%
- inhibition at 10 µg/mL (Fu5AH rat hepatoma cells; Table 6): 69%

Compound: CCCCCCCC/C=C\CCCCCCCC(=O)NC(Cc1cn(C)c2ccccc12)C(=O)OCC (centres unmarked) [Example 3a, 2-(1-oxo-9-octadecenylamino)-3-(1-methylindolyl)-propanoic acid, ethyl ester]
- F/T (Fu5AH rat hepatoma cells; [5]): 0.52

Compound: CCCCCCCC/C=C\CCCCCCCC(=O)NC(Cc1c[nH]c2ccc(OC)cc12)C(=O)OCC (centres unmarked) [Example 3b, 2-(1-oxo-9-octadecenylamino)-3-(1H-5-methoxyindolyl)-propanoic acid, ethyl ester]
- Visual (in comparison to results with compound of Example 2a) (Fu5AH rat hepatoma cells; [4]): About same
- F/T (Fu5AH rat hepatoma cells; [5]): 0.45

Compound: CCCCCCCC/C=C\CCCCCCCC(=O)NC(Cc1c[nH]c2ccc(F)cc12)C(=O)OCC (centres unmarked) [Example 3e, 2-(1-oxo-9-octadecenylamino)-3-(1H-5 fluoroindolyl)-propanoic acid, ethyl ester]
- Visual (in comparison to results with compound of Example 2a) (Fu5AH rat hepatoma cells; [4]): About same
- inhibition at 10 µg/mL (Fu5AH rat hepatoma cells; Table 6): 39%

Compound: CCCCC/C=C\C/C=C\CCCCCCCC(=O)NC(Cc1c[nH]c2ccccc12)C(=O)OCCCCCCCC (centres unmarked) [Example 4c]
- Visual (in comparison to results with compound of Example 2a) (Fu5AH rat hepatoma cells; Dose 5 (unit uncertain) as printed): Weaker
- F/T (Fu5AH rat hepatoma cells; Dose 5 as printed, Control = 0.19): 0.22

Compound: CCCCC/C=C\C/C=C\CCCCCCCC(=O)NC(Cc1c[nH]c2ccccc12)C(=O)OCc1ccccc1 (centres unmarked) [Example 4d]
- Visual (in comparison to results with compound of Example 2a) (Fu5AH rat hepatoma cells; [4]): About same
